Reference: patent USRE47141E1, “Methods of treating fibrosis, cancer and vascular injuries” (EWHA University—Industry Collaboration Foundation, priority 2010, dated 2018)

Molecular target: ALK5 (Homo sapiens (Human), UniProt P36897)
Test: Cell-free assay for inhibition of ALK5 kinase phosphorylation
Format: biochemical
Conditions: read-out: IC50 on ALK5 kinase phosphorylation

Chain of ALK5 (P36897 34-503): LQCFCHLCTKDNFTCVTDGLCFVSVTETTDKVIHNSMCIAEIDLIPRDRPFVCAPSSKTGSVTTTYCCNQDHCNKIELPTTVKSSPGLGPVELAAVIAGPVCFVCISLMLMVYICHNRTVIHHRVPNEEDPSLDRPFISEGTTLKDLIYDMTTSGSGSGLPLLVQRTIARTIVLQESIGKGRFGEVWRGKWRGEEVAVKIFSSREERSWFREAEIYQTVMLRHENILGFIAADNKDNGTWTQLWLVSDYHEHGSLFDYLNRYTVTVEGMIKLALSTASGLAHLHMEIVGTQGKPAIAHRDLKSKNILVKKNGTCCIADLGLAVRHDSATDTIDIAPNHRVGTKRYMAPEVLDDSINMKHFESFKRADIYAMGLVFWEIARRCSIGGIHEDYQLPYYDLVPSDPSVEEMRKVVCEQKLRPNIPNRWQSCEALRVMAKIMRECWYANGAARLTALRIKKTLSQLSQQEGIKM

IC50	SMILES
0.0198 µM	Cc1cccc(-c2[nH]c(Cc3ccccc3)nc2-c2ccc3ncnn3c2)n1 [Example 143, 6-(2-benzyl-5-(6-methylpyridin-2-yl)-1H-imidazol-4-yl)-[1,2,4]triazolo[1,5-a]pyridine]
0.0225 µM	Cc1cccc(-c2[nH]c(COc3cccc(C(N)=O)c3)nc2-c2ccc3ncnn3c2)n1 [Example 151, 3-((4-([1,2,4]triazolo[1,5-a]pyridin-6-yl)-5-(6-methylpyridin-2-yl)-1H-imidazol-2-yl)methoxy)benzamide]
0.0154 µM	CC(=O)Nc1cccc(NCc2nc(-c3ccc4ncnn4c3)c(-c3cccc(C)n3)[nH]2)c1 [Example 75, N-(3-((4-([1,2,4]triazolo[1,5-a]pyridin-6-yl)-5-(6-methylpyridin-2-yl)-1H-imidazol-2-yl)methylamino)phenyl)acetamide]
0.0162 µM	Cc1cccc(-c2[nH]c(CNc3cccc(C(C)C)c3)nc2-c2ccc3ncnn3c2)n1 [Example 34, N-((4-([1,2,4]triazolo[1,5-a]pyridin-6-yl)-5-(6-methylpyridin-2-yl)-1H-imidazol-2-yl)methyl)-3-isopropylaniline]
0.00616 µM	Cc1cccc(-c2[nH]c(CNc3cccc(Cl)c3)nc2-c2ccc3ncnn3c2)n1 [Example 12, N-((4-([1,2,4]triazolo[1,5-a]pyridin-6-yl)-5-(6-methylpyridin-2-yl)-1H-imidazol-2-yl)methyl)-3-chloroaniline]
0.0144 µM	COc1ccccc1NCc1nc(-c2ccc3ncnn3c2)c(-c2cccc(C)n2)[nH]1 [Example 42, N-((4-([1,2,4]triazolo[1,5-a]pyridin-6-yl)-5-(6-methylpyridin-2-yl)-1H-imidazol-2-yl)methyl)-2-methoxyaniline]
0.00654 µM	Cc1cccc(-c2[nH]c(CNc3ccccc3Br)nc2-c2ccc3ncnn3c2)n1 [Example 18, N-((4-([1,2,4]triazolo[1,5-a]pyridin-6-yl)-5-(6-methylpyridin-2-yl)-1H-imidazol-2-yl)methyl)-2-bromoaniline]
0.046 µM	Cc1cccc(-c2[nH]c(CNc3ccc(C(C)C)cc3)nc2-c2ccc3ncnn3c2)n1 [Example 35, N-((4-([1,2,4]triazolo[1,5-a]pyridin-6-yl)-5-(6-methylpyridin-2-yl)-1H-imidazol-2-yl)methyl)-4-isopropylaniline]
0.00914 µM	Cc1cccc(-c2[nH]c(CNc3cccc(C(N)=O)c3)nc2-c2ccc3ncnn3c2)n1 [Example 66, 3-((4-([1,2,4]triazolo[1,5-a]pyridin-6-yl)-5-(6-methylpyridin-2-yl)-1H-imidazol-2-yl)methylamino)benzamide]
0.0174 µM	Cc1cccc(-c2[nH]c(CNc3ccc(C)c(C)c3)nc2-c2ccc3ncnn3c2)n1 [Example 28, N-((4-([1,2,4]triazolo[1,5-a]pyridin-6-yl)-5-(6-methylpyridin-2-yl)-1H-imidazol-2-yl)methyl)-3,4-dimethylaniline]
0.0575 µM	COc1cccc(NCc2nc(-c3ccc4ncnn4c3)c(-c3cccc(C)n3)[nH]2)c1OC [Example 45, N-((4-([1,2,4]triazolo[1,5-a]pyridin-6-yl)-5-(6-methylpyridin-2-yl)-1H-imidazol-2-yl)methyl)-2,3-dimethoxyaniline]
0.0156 µM	Cc1ccc(NCc2nc(-c3ccc4ncnn4c3)c(-c3cccc(C)n3)[nH]2)cc1 [Example 26, N-((4-([1,2,4]triazolo[1,5-a]pyridin-6-yl)-5-(6-methylpyridin-2-yl)-1H-imidazol-2-yl)methyl)-4-methylaniline]
0.0142 µM	C=Cc1ccccc1NCc1nc(-c2ccc3ncnn3c2)c(-c2cccc(C)n2)[nH]1 [Example 36, N-((4-([1,2,4]triazolo[1,5-a]pyridin-6-yl)-5-(6-methylpyridin-2-yl)-1H-imidazol-2-yl)methyl)-2-vinylaniline]
0.0321 µM	Cc1cccc(-c2[nH]c(CNc3ccc(C#N)cc3)nc2-c2ccc3ncnn3c2)n1 [Example 63, 4-((4-([1,2,4]triazolo[1,5-a]pyridin-6-yl)-5-(6-methylpyridin-2-yl)-1H-imidazol-2-yl)methylamino)benzonitrile]

SMILES	IC50
Cc1cccc(-c2[nH]c(CNc3cccc(C#N)c3)nc2-c2ccc3ncnn3c2)n1 [Example 60, 3-((4-([1,2,4]triazolo[1,5-a]pyridin-6-yl)-5-(6-methylpyridin-2-yl)-1H-imidazol-2-yl)methylamino)benzonitrile]	0.00483 µM
Cc1cccc(-c2[nH]c(CNc3cccc(C#N)c3C#N)nc2-c2ccc3ncnn3c2)n1 [Example 64, 3-((4-([1,2,4]triazolo[1,5-a]pyridin-6-yl)-5-(6-methylpyridin-2-yl)-1H-imidazol-2-yl)methylamino)phthalonitrile]	0.0206 µM
